Measurements reported in article PMC5449446, “Metabolic Value Chemoattractants Are Preferentially Recognized at Broad Ligand Range Chemoreceptor of Pseudomonas putida KT2440” (Frontiers in Microbiology, 2017).

Assays:
PcaY_PP-LBD [1] = target: T1, PcaY_PP-LBD (Pseudomonas putida, UniProt Q88JK6); experiment: biochemical; assay type: binding, Pseudomonas putida KT2440; conditions: for KD: ITC at 25°C, 25 μM protein, One Binding Site model, means and SD of three experiments
T1 construct: His-tag (from the pET28b vector; inferred from NdeI/BamHI cloning and HisTrap purification) (N); made in house; host or cells: Escherichia coli BL21 (DE3)
Method: Experiments were carried out at 25°C using a VP-ITC titration calorimeter (Microcal Inc., Northampton, Massachusetts). […] Obtained data were corrected with the heat changes measured for the injection of ligand into buffer. Data were normalized with the protein concentration (Bradford assay) and fitted with the “One Binding Site” model of the MicroCal version of the ORIGIN 7.0 software (OriginLab Corporation, Northampton, MA, United States), leaving all parameters floating.

[2] = tested on: Pseudomonas putida KT2440; experiment: Quantitative capillary chemotaxis assay; assay type: cell-based; conditions: 30 min, wild type KT2440
Method: Subsequently, the cells were re-suspended in the same buffer, adjusted to an OD660 of 0.15 and 230 μl aliquots of this bacterial culture were placed into 96-well plates. For the quantitative assays, one-microliter capillary tubes (Microcaps, Drummond Scientific, Ref. […]) were heat-sealed at one end and filled with either the chemotaxis buffer (negative control) or chemotaxis buffer containing the chemoeffector. The capillaries were immersed into the bacterial suspension and incubated for 30 min at room temperature. Capillaries were subsequently removed from the bacterial suspension, rinsed with sterile water and the content expelled into 1 ml of M9 medium. Serial dilutions were plated onto LB medium (containing the appropriate antibiotics) and the number of colony forming units was determined. In all cases, data were corrected with the number of cells that swam into buffer containing capillaries.

P. putida KT2440 = experiment: Growth in M9 minimal medium with ligand as sole C-source; assay type: cell-based, Pseudomonas putida KT2440; conditions: 10 mM (2 mM for poorly soluble) ligand
Method: P. putida KT2440R was grown in the same medium supplemented with rifampicin (10 μg ml^-1). […] When necessary, the pH of the medium was adjusted to 7.0 prior to inoculation. Bacterial growth rates were monitored by measuring the OD660 until cultures reached the stationary phase. The growth rate during the exponential growth (m) was calculated according to m = (LnOD2-LnOD1).(t2-t1)^-1, where OD2/t2 and OD1/t1 correspond to the OD660/time at the end and the beginning of the time interval. The generation time (G) was defined by G = Ln2 μ^-1. […] Normalized growth yield per carbon source after 24 h was determined applying correlation factors between cell dry weight and OD660 determined in batch cultures and assuming that all the carbon source was consumed during growth. Data were fitted by linear least squares regression or submitted to the chi-squared test with Yates correction using in both cases the Graph Pad Prism v7.02 software.

McpH = target: McpH; parameters: method as in ref (2) (a number printed in a supplementary file, which may have a reference list of its own: not looked up in the article's list); conditions: ITC, purified recombinant LBD; ref (2); cited from earlier work
McpU = target: McpU; parameters: method as in ref (3) (a number printed in a supplementary file, which may have a reference list of its own: not looked up in the article's list); conditions: ITC, purified recombinant LBD; ref (3); cited from earlier work
McpA = target: McpA; parameters: method as in ref (3) (a number printed in a supplementary file, which may have a reference list of its own: not looked up in the article's list); conditions: ITC, purified recombinant LBD; ref (3); cited from earlier work
McpP = target: McpP; parameters: method as in ref (6) (a number printed in a supplementary file, which may have a reference list of its own: not looked up in the article's list); conditions: ITC, purified recombinant LBD; ref (6); cited from earlier work
PcaY_PP-LBD [3] = target: T1, PcaY_PP-LBD; parameters: species or system Pseudomonas putida KT2440; conditions: saturating ligand (400 μM), 10°C
Method: Experiments were performed in a Beckman Coulter Optima XL-A analytical ultracentrifuge (Beckman-Coulter, Palo Alto, CA, United States) equipped with UV-visible absorbance detection system, using an An50Ti 8-hole rotor, 12 mm path-length charcoal-filled epon double-sector centerpieces. The sedimentation velocity (SV) experiments were carried out at a rotor speed of 40,000 rpm and 10°C using 400 μl samples in analysis buffer. […] Analysis buffer with or without ligands was used as reference. […] A least squares boundary modeling of the SV data was used to calculate sedimentation coefficient distributions with the size-distribution c(s) method ([Schuck, 2000]) implemented in the SEDFIT v11.71 software. […] The multi-speed sedimentation equilibrium experiments were carried out at 10°C and 12,000, 14,000, and 18,000 rpm until equilibrium was reached. […] Generally two wavelengths were used per sample.

T1 sequence (Q88JK6 44-196): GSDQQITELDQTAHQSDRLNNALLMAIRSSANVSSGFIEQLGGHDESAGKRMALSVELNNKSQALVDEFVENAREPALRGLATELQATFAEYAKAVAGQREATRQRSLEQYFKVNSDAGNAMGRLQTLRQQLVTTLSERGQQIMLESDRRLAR

Nc1ccccc1C(=O)O [2-ABA, 2-Aminobenzoate]
Kd (PcaY_PP-LBD [1]): 89 µM
∆G (PcaY_PP-LBD [1]; ITC): -5.52 ± 0.07 kcal/mol
∆H (PcaY_PP-LBD [1]; ITC): -18.0 ± 1.8 kcal/mol

O=C(O)c1ccccc1Cl [2-CBA, 2-chlorobenzoate]
chemotactic response [2]: did not induce a chemotactic response
KD (PcaY_PP-LBD [1]): No binding

O=C(O)c1ccccc1O [2-HBA, 2-hydroxybenzoate]
chemotactic response [2]: much weaker
Kd (PcaY_PP-LBD [1]): 24 µM
∆G (PcaY_PP-LBD [1]; ITC): -6.30 ± 0.03 kcal/mol
∆H (PcaY_PP-LBD [1]; ITC): -21.0 ± 0.6 kcal/mol

Cc1ccccc1C(=O)O [2-MBA]
KD (PcaY_PP-LBD [1]): No binding

O=C(O)c1ccccc1[N+](=O)[O-] [2-NBA]
KD (PcaY_PP-LBD [1]): No binding

Nc1cccc(C(=O)O)c1 [3-ABA, 3-aminobenzoate]
Kd (PcaY_PP-LBD [1]): 138 µM
∆G (PcaY_PP-LBD [1]; ITC): -5.26 ± 0.07 kcal/mol
∆H (PcaY_PP-LBD [1]; ITC): -16.4 ± 1.2 kcal/mol

O=C(O)c1cccc(Cl)c1 [3-CBA, 3-chlorobenzoate]
Kd (PcaY_PP-LBD [1]): 34 µM
∆G (PcaY_PP-LBD [1]; ITC): -6.09 ± 0.03 kcal/mol
∆H (PcaY_PP-LBD [1]; ITC): -13.2 ± 0.3 kcal/mol

O=C(O)C1=CC(=O)C(O)C(O)C1 (stereo not drawn) [3-Dehydroshikimate, 3-dehydroshikimate]
capacity to support growth as sole carbon source (P. putida KT2440): supported bacterial growth
Kd (PcaY_PP-LBD [1]): 6 µM
∆G (PcaY_PP-LBD [1]; ITC): -7.11 ± 0.03 kcal/mol
∆H (PcaY_PP-LBD [1]; ITC): -19.9 ± 0.3 kcal/mol

O=C(O)c1cccc(O)c1 [3-HBA, 3-hydroxybenzoate]
KD (PcaY_PP-LBD [1]): No Binding

Cc1cccc(C(=O)O)c1 [3-MBA, 3-Methylbenzoate]
Kd (PcaY_PP-LBD [1]): 32 µM
∆G (PcaY_PP-LBD [1]; ITC): -6.12 ± 0.04 kcal/mol
∆H (PcaY_PP-LBD [1]; ITC): -21.9 ± 1.1 kcal/mol

O=C(O)c1cccc([N+](=O)[O-])c1 [3-NBA, 3-Nitrobenzoate]
Kd (PcaY_PP-LBD [1]): 61 µM
∆G (PcaY_PP-LBD [1]; ITC): -5.74 ± 0.06 kcal/mol
∆H (PcaY_PP-LBD [1]; ITC): -17.5 ± 0.3 kcal/mol

Nc1ccc(C(=O)O)cc1 [4-ABA, 4-aminobenzoate]
chemotactic response [2]: much weaker
Kd (PcaY_PP-LBD [1]): 98 µM
∆G (PcaY_PP-LBD [1]; ITC): -5.46 ± 0.12 kcal/mol
∆H (PcaY_PP-LBD [1]; ITC): -11.0 ± 0.4 kcal/mol

O=C(O)c1ccc(O)cc1 [4-HBA, 4-hydroxybenzoate]
capacity to support growth as sole carbon source (P. putida KT2440): supported bacterial growth
Kd (PcaY_PP-LBD [1]): 7.2 µM
increase in affinity as compared to benzoate (PcaY_PP-LBD [1]; ITC): around 12 fold
∆G (PcaY_PP-LBD [1]; ITC): -7.01 ± 0.08 kcal/mol
∆H (PcaY_PP-LBD [1]; ITC): -33.2 ± 1.4 kcal/mol

O=Cc1ccc(O)cc1 [4-Hbenzaldehyde, 4-hydroxybenzaldehyde]
KD (PcaY_PP-LBD [1]): No Binding
KD (PcaY_PP-LBD [1]; listed as 4-hydroxybenzaldehyde): devoid of binding

Cc1ccc(C(=O)O)cc1 [4-MBA, 4-Methylbenzoate]
Kd (PcaY_PP-LBD [1]): 41 µM
∆G (PcaY_PP-LBD [1]; ITC): -5.97 ± 0.12 kcal/mol
∆H (PcaY_PP-LBD [1]; ITC): -13.2 ± 0.9 kcal/mol

O=C(O)c1ccc([N+](=O)[O-])cc1 [4-NBA, 4-Nitrobenzoate]
Kd (PcaY_PP-LBD [1]): 50 µM
∆G (PcaY_PP-LBD [1]; ITC): -5.86 ± 0.06 kcal/mol
∆H (PcaY_PP-LBD [1]; ITC): -13.8 ± 1.2 kcal/mol

Nc1ncnc2[nH]cnc12 [Adenine]
Kd (McpH): 2.4 µM

O=C(O)CCCCC(=O)O [Adipate, adipate]
KD (PcaY_PP-LBD [1]): No binding
KD (PcaY_PP-LBD [1]; listed as adipate): No binding heats

O=C(O)c1ccccc1 [Benzoate, benzoate]
chemotactic response [2]: much weaker
capacity to support growth as sole carbon source (P. putida KT2440): supported bacterial growth
Kd (PcaY_PP-LBD [1]): 90 ± 8 µM
∆G (PcaY_PP-LBD [1]; ITC): -5.51 ± 0.06 kcal/mol
∆H (PcaY_PP-LBD [1]; ITC): -13.3 ± 0.5 kcal/mol

NCCCCCN [Cadaverine]
Kd (McpU): 22 µM

NCC(=O)O [Gly]
Kd (McpA): 35 µM

Nc1nc2nc[nH]c2c(=O)[nH]1 [Guanine]
Kd (McpH): 4.3 µM

O=c1[nH]cnc2nc[nH]c12 [Hypoxanthine]
Kd (McpH): 3.3 µM

C[C@H](N)C(=O)O [L-Ala]
Kd (McpA): 13 µM

N=C(N)NCCC[C@H](N)C(=O)O [L-Arg]
Kd (McpA): 1.2 µM

NC(=O)C[C@H](N)C(=O)O [L-Asn]
Kd (McpA): 4.3 µM

N[C@@H](CS)C(=O)O [L-Cys]
Kd (McpA): 0.6 µM

NC(=O)CC[C@H](N)C(=O)O [L-Gln]
Kd (McpA): 5.5 µM

CC[C@H](C)[C@H](N)C(=O)O [L-Ile]
Kd (McpA): 85 µM

CSCC[C@H](N)C(=O)O [L-Met]
Kd (McpA): 5.8 µM

N[C@@H](Cc1ccccc1)C(=O)O [L-Phe]
Kd (McpA): 2.3 µM

N[C@@H](CO)C(=O)O [L-Ser]
Kd (McpA): 43 µM

N[C@@H](Cc1ccc(O)cc1)C(=O)O [L-Tyr]
Kd (McpA): 12.1 µM

CC(C)[C@H](N)C(=O)O [L-Val]
Kd (McpA): 373 µM

C[C@H](O)C(=O)O [L-lactate]
Kd (McpP): 107 µM

O=C(O)CC(O)C(=O)O (stereo not drawn) [Malate, malate]
KD (PcaY_PP-LBD [1]): did not show any binding

CCC(=O)O [Propionate]
Kd (McpP): 34 µM

O=C(O)c1ccc(O)c(O)c1 [Protocatechuate, protocatechuate]
chemotactic response [2]: much weaker
capacity to support growth as sole carbon source (P. putida KT2440): supported bacterial growth
Kd (PcaY_PP-LBD [1]): 6.4 µM
∆G (PcaY_PP-LBD [1]; ITC): -7.08 ± 0.04 kcal/mol
∆H (PcaY_PP-LBD [1]; ITC): -22.9 ± 1.2 kcal/mol

c1ncc2nc[nH]c2n1 [Purine]
Kd (McpH): 2.4 µM

NCCCCN [Putrescine]
Kd (McpU): 2 µM

CC(=O)C(=O)O [Pyruvate]
Kd (McpP): 39 µM

O=C(O)[C@]1(O)C[C@@H](O)[C@@H](O)[C@H](O)C1 [Quinate, quinate]
chemotactic response [2]: very strong responses
capacity to support growth as sole carbon source (P. putida KT2440): supported bacterial growth
Kd (PcaY_PP-LBD [1]): 3.7 µM
∆G (PcaY_PP-LBD [1]; ITC): -7.40 ± 0.02 kcal/mol
∆H (PcaY_PP-LBD [1]; ITC): -13.2 ± 0.4 kcal/mol
sedimentation coefficient s20,w of PcaY_PP-LBD in presence of ligand (PcaY_PP-LBD [3]): 3.1 S

O=C(O)C1=CC(O)C(O)C(O)C1 (stereo not drawn) [Shikimate, shikimate]
chemotactic response [2]: very strong responses
Kd (PcaY_PP-LBD [1]): 4.4 µM
∆G (PcaY_PP-LBD [1]; ITC): -7.30 ± 0.1 kcal/mol
∆H (PcaY_PP-LBD [1]; ITC): -16.6 ± 1.1 kcal/mol
sedimentation coefficient s20,w of PcaY_PP-LBD in presence of ligand (PcaY_PP-LBD [3]): 3.1 S

NCCCCNCCCN [Spermidine]
Kd (McpU): 4.5 µM

O=C(O)CCC(=O)O [Succinate, succinate]
KD (PcaY_PP-LBD [1]): did not show any binding

O=c1[nH]c(=O)c2[nH]c(=O)[nH]c2[nH]1 [Uric acid]
Kd (McpH): 1.3 µM

COc1cc(C(=O)O)ccc1O [Vanillate, vanillate]
Kd (PcaY_PP-LBD [1]): 11 µM
∆G (PcaY_PP-LBD [1]; ITC): -6.70 ± 0.03 kcal/mol
∆H (PcaY_PP-LBD [1]; ITC): -12.8 ± 1.7 kcal/mol

COc1cc(C=O)ccc1O [Vanillin, vanillin]
KD (PcaY_PP-LBD [1]): No binding
KD (PcaY_PP-LBD [1]; listed as vanillin): absence of binding

O=c1[nH]c(=O)c2nc[nH]c2[nH]1 [Xanthine]
Kd (McpH): 2.7 µM
